# Laboratory results taken from ChEMBL document CHEMBL2375214, “Evaluation of anti-HCV activity and SAR study of (+)-lycoricidine through targeting of host heat-stress cognate 70 (Hsc70)” (Bioorg Med Chem Lett, 2013).
# Legend:
# Hepatitis C virus [1] = experiment: Antiviral activity against Hepatitis C virus infected in human Huh7.5 cells after 96 hrs by fluorescence microscopic analysis; assay type: functional, organism-based, Hepacivirus hominis; conditions: huh-7
# [2] = Cytotoxicity against human Huh7.5 cells treated after 96 hrs by MTT assay; assay type: cell-based, Huh-7
# Hepatitis C virus [3] = experiment: Selectivity index, ratio of CC50 for human Huh7.5 cells to EC50 for Hepatitis C virus; assay type: toxicity, cell-based, Huh-7; conditions: read-out: Ratio CC50/EC50
# [4] = Down regulation of Hsc70 protein expression in Hepatitis C virus-infected human Huh7.5 cells […] at 10 ug/mL after 24 hrs by Western blotting analysis relative to actin expression; assay type: functional, cell-based; conditions: Huh-7
# [5] = Down regulation of Hsc70 protein expression in Hepatitis C virus-infected human Huh7.5 cells at 100 ug/mL after 24 hrs by Western blotting analysis relative to actin expression; assay type: functional, cell-based; conditions: Huh-7
# [6] = Down regulation of Hsc70 protein expression in Hepatitis C virus-infected human Huh7.5 cells at 0.1 ug/mL after 24 hrs by Western blotting analysis relative to actin expression; assay type: functional, cell-based; conditions: Huh-7
# [7] = Down regulation of Hsc70 protein expression in Hepatitis C virus-infected human Huh7.5 cells […] at 1 ug/mL after 24 hrs by Western blotting analysis relative to actin expression; assay type: functional, cell-based; conditions: Huh-7
# [8] = Down regulation of Hsc70 protein expression in Hepatitis C virus-infected human Huh7.5 cells at 10 ug/mL after 24 hrs by Western blotting analysis relative to actin expression; assay type: functional, cell-based; conditions: Huh-7
# [9] = Down regulation of Hsc70 protein expression in Hepatitis C virus-infected human Huh7.5 cells […] at 0.1 ug/mL after 24 hrs by Western blotting analysis relative to actin expression; assay type: functional, cell-based; conditions: Huh-7
# [10] = Down regulation of Hsc70 protein expression in Hepatitis C virus-infected human Huh7.5 cells at 1 ug/mL after 24 hrs by Western blotting analysis relative to actin expression; assay type: functional, cell-based; conditions: Huh-7
# [11] = Down regulation of Hsc70 protein expression in Hepatitis C virus-infected human Huh7.5 cells […] at 100 ug/mL after 24 hrs by Western blotting analysis relative to actin expression; assay type: functional, cell-based; conditions: Huh-7
# [12] = Down regulation of Hsc70 protein expression in Hepatitis C virus-infected human Huh7.5 cells […] at 0.1 ug/mL after 24 hrs by Western blotting analysis relative to control; assay type: functional, cell-based; set-up: scale not given: the % may be the effect or the level left; conditions: Huh-7
# [13] = Down regulation of Hsc70 protein expression in Hepatitis C virus-infected human Huh7.5 cells at 0.1 ug/mL after 24 hrs by Western blotting analysis relative to control; assay type: functional, cell-based; conditions: Huh-7
# Huh-7 [14] = experiment: Inhibition of Hsc70 mRNA expression in Hepatitis C virus-infected human Huh7.5 cells at 10 ug/mL after 24 hrs by RT-PCR analysis relative to control; assay type: functional; conditions: Huh-7, 24 h
# Huh-7 [15] = experiment: Inhibition of Hsc70 mRNA expression in Hepatitis C virus-infected human Huh7.5 cells at 100 ug/mL after 24 hrs by RT-PCR analysis relative to control; assay type: functional; conditions: Huh-7, 24 h
Structure (SMILES),EC50 (Hepatitis C virus [1]),CC50 at 96 h [2],selectivity ratio (Hepatitis C virus [3]),other results
CO[C@@H]1[C@H](OC)[C@@H](OC)C=C2c3cc4c(cc3C(=O)N(C)[C@H]21)OCO4,22 µM,180 µM,8.2,
CC1(C)O[C@@H]2[C@H](O1)[C@@H](OCc1ccccc1)C=C1c3cc4c(cc3C(=O)N(Cc3ccccc3)[C@H]12)OCO4,65 µM,200 µM,3.08,
CCO[C@@H]1[C@H](OCC)[C@@H](OCC)C[C@@H]2c3cc4c(cc3C(=O)N(CC)[C@@H]12)OCO4,43 µM,> 300 µM,> 6.98,
CO[C@H]1C=C2c3cc4c(cc3C(=O)N(C)[C@H]2[C@@H]2OC(C)(C)O[C@@H]21)OCO4,93 µM,280 µM,3.01,
O[C@H]1[C@@H]2c3cc4c(cc3CN3CC[C@@H](C[C@H]1O)[C@H]23)OCO4,,,,fold change (FC) [4]: 1.22; fold change (FC) [5]: 0.67; fold change (FC) [6]: 1.01; fold change (FC) [7]: 1.16; fold change (FC) [8]: 0.6; fold change (FC) [9]: 1.2; fold change (FC) [10]: 0.68; fold change (FC) [11]: 0.1
CCO[C@@H]1[C@H](OCC)[C@@H](OCC)C=C2c3cc4c(cc3C(=O)N(CC)[C@H]21)OCO4,> 83 µM,252 µM,< 3.01,
O[C@@H]1[C@@H](O)C=C2CCN3Cc4cc5c(cc4[C@H]1C23)OCO5 (stereo partly specified),,,,fold change (FC) [6]: 0.78; fold change (FC) [7]: 0.2; fold change (FC) [9]: 1.86; fold change (FC) [10]: 0.79
C=CCO[C@H]1C=C2c3cc4c(cc3C(=O)N(CC=C)[C@H]2[C@@H]2OC(C)(C)O[C@@H]21)OCO4,40 µM,250 µM,6.25,
CO[C@@H]1[C@H](OC)[C@@H](OC)C[C@@H]2c3cc4c(cc3C(=O)N(C)[C@@H]12)OCO4,54 µM,> 300 µM,> 5.56,
C=CCO[C@@H]1[C@H](OCC=C)[C@@H](OCC=C)C[C@@H]2c3cc4c(cc3C(=O)N(CC=C)[C@@H]12)OCO4,12 µM,38 µM,3.17,
CCO[C@H]1C[C@@H]2c3cc4c(cc3C(=O)N(CC)[C@H]2[C@@H]2OC(C)(C)O[C@@H]21)OCO4,85 µM,260 µM,3.06,
CC(=O)O[C@H]1C[C@@H]2c3cc4c(cc3C(=O)N[C@H]2[C@@H]2OC(C)(C)O[C@@H]21)OCO4,89 µM,270 µM,3.03,
CCO[C@H]1C=C2c3cc4c(cc3C(=O)N(CC)[C@H]2[C@@H]2OC(C)(C)O[C@@H]21)OCO4,15 µM,180 µM,12,
CC1(C)O[C@@H]2[C@H](O1)[C@@H](O[Si](C)(C)C(C)(C)C)C=C1c3cc4c(cc3C(=O)N[C@H]12)OCO4,75 µM,160 µM,2.13,
CC1(C)O[C@H]2[C@@H]3NC(=O)c4cc5c(cc4[C@H]3C[C@H](O)[C@H]2O1)OCO5,> 11 µM,280 µM,< 25.5,
CO[C@H]1C[C@@H]2c3cc4c(cc3C(=O)N(C)[C@H]2[C@@H]2OC(C)(C)O[C@@H]21)OCO4,92 µM,250 µM,2.17,
O=C1N[C@@H]2C(=C[C@H](O)[C@@H](O)[C@H]2O)c2cc3c(cc21)OCO3,0.55 µM,7.2 µM,12.7,Activity [12]: 6%; fold change (FC) [6]: 0.72; Activity [13]: 28%; inhibition at 10 µg/mL (Huh-7 [14]): 91.4%; fold change (FC) [9]: 0.06; inhibition at 100 µg/mL (Huh-7 [15]): 83.1%
C=CCO[C@@H]1[C@H](OCC=C)[C@@H](OCC=C)C=C2c3cc4c(cc3C(=O)N(CC=C)[C@H]21)OCO4,74 µM,120 µM,1.62,
O=C1N[C@H]2[C@H](O)[C@H](O)[C@@H](O)C[C@@H]2c2cc3c(cc21)OCO3,0.68 µM,23 µM,33.8,
CC(=O)O[C@@H]1[C@H](OC(C)=O)[C@@H](OC(C)=O)C=C2c3cc4c(cc3C(=O)N[C@H]21)OCO4 [LYCORICIDINE TRIACETATE],> 0.98 µM,33 µM,< 33.8,
O[C@@H]1[C@H](O)[C@@H](O)C=C2c3cc4c(cc3CN[C@H]21)OCO4,33 µM,> 360 µM,> 10.9,
CC1(C)O[C@@H]2[C@H](O1)[C@@H](O)C=C1c3cc4c(cc3C(=O)N[C@H]12)OCO4,11 µM,170 µM,9.09,
CC(=O)O[C@H]1C=C2c3cc4c(cc3C(=O)N[C@H]2[C@@H]2OC(C)(C)O[C@@H]21)OCO4,63 µM,> 300 µM,> 4.76,
